Measured values from ChEMBL document CHEMBL5058647, “Data for DCP probe JNJ-9350” (2022).
Values joined by “and” are separate entries in the source; they are usually repeats but may differ in a detail not shown here. Equal entries are not always repeated. Active and inactive are the calls of the source. The rule behind the calls is not given here.

What was measured:
[1] = target: 5-hydroxytryptamine receptor 1A (Homo sapiens) (UniProt P08908); conditions: Compound concentration 10.0 uM
[2] = target: Peroxisomal N(1)-acetyl-spermine/spermidine oxidase (Homo sapiens, UniProt Q6QHF9); assay: HyPerBlu POAX enzymatic assay
[3] = target: T1, Sigma intracellular receptor 2 (Homo sapiens, UniProt Q5BJF2); conditions: Compound concentration 10.0 uM
T1 sequence (Q5BJF2 whole entry): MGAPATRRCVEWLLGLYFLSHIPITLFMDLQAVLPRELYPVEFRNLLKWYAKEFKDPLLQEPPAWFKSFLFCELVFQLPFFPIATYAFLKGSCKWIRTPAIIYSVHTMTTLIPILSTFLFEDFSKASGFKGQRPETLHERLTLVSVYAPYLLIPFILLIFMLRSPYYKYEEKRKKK

[4] = target: Beta-1 adrenergic receptor (Homo sapiens) (UniProt P08588); conditions: Compound concentration 10.0 uM
[5] = target: Cholecystokinin receptor type A (Homo sapiens) (UniProt P32238); assay: CCK1 (CCKA) (h) CEREP ligand profiling; conditions: filed as agonist, Compound concentration 10.0 uM
[6] = target: Alpha-2C adrenergic receptor (Homo sapiens) (UniProt P18825); conditions: Compound concentration 10.0 uM
[7] = target: Adenosine receptor A3 (Homo sapiens) (UniProt P0DMS8); assay: A3 (h) CEREP ligand profiling; conditions: filed as agonist, Compound concentration 10.0 uM
[8] = target: Beta-2 adrenergic receptor (Homo sapiens) (UniProt P07550); conditions: Compound concentration 10.0 uM
[9] = target: Mu-type opioid receptor (Homo sapiens) (UniProt P35372); conditions: Compound concentration 10.0 uM
[10] = target: Alpha-1D adrenergic receptor (Homo sapiens) (UniProt P25100); conditions: Compound concentration 10.0 uM
[11] = target: T1, Sigma intracellular receptor 2; assay: GPCRScan assay: inhibition of Sigma 2; set-up: radioligand conc. used [nm] 5.0, parental cells HEKT
[12] = target: D(2) dopamine receptor (Homo sapiens) (UniProt P14416); conditions: Compound concentration 10.0 uM
[13] = target: 5-hydroxytryptamine receptor 2A (Homo sapiens) (UniProt P28223); assay: 5-HT2A (h) CEREP ligand profiling; conditions: filed as agonist, Compound concentration 10.0 uM
5-hydroxytryptamine receptor 2A (Homo sapiens), sequence (P28223 whole entry): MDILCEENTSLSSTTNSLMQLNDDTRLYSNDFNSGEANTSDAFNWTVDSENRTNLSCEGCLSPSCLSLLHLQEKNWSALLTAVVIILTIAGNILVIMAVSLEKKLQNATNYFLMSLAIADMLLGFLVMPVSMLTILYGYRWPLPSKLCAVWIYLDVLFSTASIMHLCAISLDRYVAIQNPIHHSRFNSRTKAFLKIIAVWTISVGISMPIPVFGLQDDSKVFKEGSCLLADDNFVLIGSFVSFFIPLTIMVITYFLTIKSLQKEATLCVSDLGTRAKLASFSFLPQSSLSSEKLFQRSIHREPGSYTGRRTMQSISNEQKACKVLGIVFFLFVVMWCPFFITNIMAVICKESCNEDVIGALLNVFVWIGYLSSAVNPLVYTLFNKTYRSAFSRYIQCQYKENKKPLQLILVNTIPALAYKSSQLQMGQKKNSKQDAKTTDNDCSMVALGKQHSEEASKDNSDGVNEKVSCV

[14] = target: T2, 5-hydroxytryptamine receptor 1D (Homo sapiens, UniProt P28221); conditions: Compound concentration 10.0 uM
T2 sequence (P28221 whole entry): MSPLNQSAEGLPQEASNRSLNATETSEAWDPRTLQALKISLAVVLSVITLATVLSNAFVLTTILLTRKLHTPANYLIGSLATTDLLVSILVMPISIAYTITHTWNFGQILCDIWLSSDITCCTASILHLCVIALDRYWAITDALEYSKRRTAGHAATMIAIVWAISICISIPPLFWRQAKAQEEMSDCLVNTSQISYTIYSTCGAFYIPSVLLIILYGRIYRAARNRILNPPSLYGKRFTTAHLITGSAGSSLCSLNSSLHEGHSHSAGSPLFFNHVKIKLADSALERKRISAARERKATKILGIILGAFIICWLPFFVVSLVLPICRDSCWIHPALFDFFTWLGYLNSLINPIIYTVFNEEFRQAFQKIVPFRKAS

[15] = target: Histamine H2 receptor (Homo sapiens) (UniProt P25021); conditions: Compound concentration 10.0 uM
Histamine H2 receptor (Homo sapiens), sequence (P25021 whole entry): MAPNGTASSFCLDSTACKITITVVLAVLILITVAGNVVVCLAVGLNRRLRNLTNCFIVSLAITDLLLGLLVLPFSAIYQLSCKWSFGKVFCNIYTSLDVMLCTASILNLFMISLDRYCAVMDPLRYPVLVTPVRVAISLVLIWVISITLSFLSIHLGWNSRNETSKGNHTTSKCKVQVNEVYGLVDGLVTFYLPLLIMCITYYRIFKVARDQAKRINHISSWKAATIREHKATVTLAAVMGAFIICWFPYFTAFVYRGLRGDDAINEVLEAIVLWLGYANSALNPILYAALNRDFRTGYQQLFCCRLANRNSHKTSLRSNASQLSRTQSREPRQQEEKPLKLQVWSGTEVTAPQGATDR

[16] = target: Histamine H4 receptor (Homo sapiens) (UniProt Q9H3N8); conditions: Compound concentration 10.0 uM
[17] = target: T2, 5-hydroxytryptamine receptor 1D; assay: GPCRScan assay: inhibition of 5-HT1D; set-up: radioligand conc. used [nm] 1.0 – 2.0, parental cells HEKT
[18] = target: Alpha-2B adrenergic receptor (Homo sapiens) (UniProt P18089); conditions: Compound concentration 10.0 uM
Spermine oxidase [19] = target: T3, Spermine oxidase (Homo sapiens, UniProt Q9NWM0); assay: SMOX CETSA assay
T3 sequence (Q9NWM0 whole entry): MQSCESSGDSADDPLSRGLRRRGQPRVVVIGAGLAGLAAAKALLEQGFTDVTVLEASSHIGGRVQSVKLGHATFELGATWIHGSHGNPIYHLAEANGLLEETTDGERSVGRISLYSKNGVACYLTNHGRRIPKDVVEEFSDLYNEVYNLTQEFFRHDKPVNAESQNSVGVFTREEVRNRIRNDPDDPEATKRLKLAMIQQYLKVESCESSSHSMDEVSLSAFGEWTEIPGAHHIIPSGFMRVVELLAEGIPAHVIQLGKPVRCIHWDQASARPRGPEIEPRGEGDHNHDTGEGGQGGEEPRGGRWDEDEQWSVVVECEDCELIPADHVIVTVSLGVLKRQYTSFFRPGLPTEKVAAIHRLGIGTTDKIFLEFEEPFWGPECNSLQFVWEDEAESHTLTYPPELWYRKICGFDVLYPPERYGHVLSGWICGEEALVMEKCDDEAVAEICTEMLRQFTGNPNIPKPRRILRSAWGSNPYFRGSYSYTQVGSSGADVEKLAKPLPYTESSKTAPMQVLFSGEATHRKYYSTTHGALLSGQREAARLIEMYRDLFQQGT

[20] = target: Sodium-dependent dopamine transporter (Homo sapiens, UniProt Q01959); conditions: Compound concentration 10.0 uM
[21] = target: 5-hydroxytryptamine receptor 2C (Homo sapiens) (UniProt P28335); conditions: Compound concentration 10.0 uM
[22] = target: Delta-type opioid receptor (Homo sapiens) (UniProt P41143); conditions: Compound concentration 10.0 uM
[23] = target: T4, 5-hydroxytryptamine receptor 1B (Homo sapiens, UniProt P28222); assay: 5-HT1B (h) CEREP ligand profiling; conditions: filed as antagonist, Compound concentration 10.0 uM
T4 sequence (P28222 whole entry): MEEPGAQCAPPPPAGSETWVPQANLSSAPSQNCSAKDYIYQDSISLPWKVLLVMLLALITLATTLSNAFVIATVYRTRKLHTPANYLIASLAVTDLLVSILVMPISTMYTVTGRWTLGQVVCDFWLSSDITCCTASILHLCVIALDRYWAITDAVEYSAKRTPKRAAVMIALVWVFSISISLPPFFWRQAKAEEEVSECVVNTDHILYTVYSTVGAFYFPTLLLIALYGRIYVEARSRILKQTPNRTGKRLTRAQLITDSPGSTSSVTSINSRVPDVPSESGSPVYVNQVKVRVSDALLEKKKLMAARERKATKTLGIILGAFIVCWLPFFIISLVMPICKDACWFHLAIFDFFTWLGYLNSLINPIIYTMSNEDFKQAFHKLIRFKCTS

[24] = target: 5-hydroxytryptamine receptor 3A (Homo sapiens) (UniProt P46098); conditions: Compound concentration 10.0 uM
[25] = target: 5-hydroxytryptamine receptor 2A (Homo sapiens) (UniProt P28223); conditions: Compound concentration 10.0 uM
[26] = target: 5-hydroxytryptamine receptor 7 (Homo sapiens) (UniProt P34969); conditions: Compound concentration 10.0 uM
[27] = target: T5, Kappa-type opioid receptor (Homo sapiens, UniProt P41145); conditions: Compound concentration 10.0 uM
T5 sequence (P41145 whole entry): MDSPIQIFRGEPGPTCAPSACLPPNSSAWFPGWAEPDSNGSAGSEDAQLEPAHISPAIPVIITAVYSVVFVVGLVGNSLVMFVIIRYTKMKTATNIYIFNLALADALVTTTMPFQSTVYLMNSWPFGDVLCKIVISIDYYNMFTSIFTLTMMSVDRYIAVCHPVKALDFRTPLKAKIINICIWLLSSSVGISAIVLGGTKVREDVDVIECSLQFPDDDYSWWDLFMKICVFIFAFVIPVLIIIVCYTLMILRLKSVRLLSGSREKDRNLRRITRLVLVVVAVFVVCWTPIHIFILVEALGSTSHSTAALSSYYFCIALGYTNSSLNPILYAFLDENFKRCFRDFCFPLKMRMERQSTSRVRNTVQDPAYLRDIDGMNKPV

[28] = target: T6, 5-hydroxytryptamine receptor 2B (Homo sapiens, UniProt P41595); assay: 5-HT2B (h) CEREP ligand profiling; conditions: filed as agonist, Compound concentration 10.0 uM
T6 sequence (P41595 whole entry): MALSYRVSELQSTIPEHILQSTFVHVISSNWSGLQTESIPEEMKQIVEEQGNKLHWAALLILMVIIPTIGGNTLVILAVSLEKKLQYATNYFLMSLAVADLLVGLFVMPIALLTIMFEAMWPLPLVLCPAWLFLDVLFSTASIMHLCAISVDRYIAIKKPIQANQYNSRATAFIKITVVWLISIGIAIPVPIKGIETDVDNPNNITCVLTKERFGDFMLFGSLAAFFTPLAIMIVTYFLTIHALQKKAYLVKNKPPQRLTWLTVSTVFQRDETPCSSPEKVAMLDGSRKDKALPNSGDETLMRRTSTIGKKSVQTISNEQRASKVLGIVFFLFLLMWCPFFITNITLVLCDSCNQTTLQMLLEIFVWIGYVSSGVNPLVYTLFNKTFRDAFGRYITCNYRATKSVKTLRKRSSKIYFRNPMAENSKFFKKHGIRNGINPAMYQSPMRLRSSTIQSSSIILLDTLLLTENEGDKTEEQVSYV

[29] = target: T5, Kappa-type opioid receptor; assay: GPCRScan assay: inhibition of KOR; set-up: radioligand conc. used [nm] 0.6 – 1.2, parental cells stable HEK
[30] = target: Beta-3 adrenergic receptor (Homo sapiens) (UniProt P13945); conditions: Compound concentration 10.0 uM
D(3) dopamine receptor = D(3) dopamine receptor (Homo sapiens, UniProt P35462); conditions: Compound concentration 10.0 uM
[31] = target: T6, 5-hydroxytryptamine receptor 2B; conditions: Compound concentration 10.0 uM
Homo sapiens = organism: Homo sapiens; assay: sigma (non-selective) (h) CEREP ligand profiling; conditions: filed as agonist, Compound concentration 10.0 uM
[32] = target: D(1B) dopamine receptor (Homo sapiens) (UniProt P21918); conditions: Compound concentration 10.0 uM
[33] = target: T4, 5-hydroxytryptamine receptor 1B; conditions: Compound concentration 10.0 uM
[34] = target: D(4) dopamine receptor (Homo sapiens) (UniProt P21917); conditions: Compound concentration 10.0 uM
[35] = GPCRScan assay: inhibition of GABA/PBR; set-up: species or system Rattus norvegicus; radioligand conc. used [nm] 0.3 – 2.0, parental cells brain tissue
[36] = target: T4, 5-hydroxytryptamine receptor 1B; assay: GPCRScan assay: inhibition of 5-HT1B; set-up: radioligand conc. used [nm] 0.6 – 1.5, parental cells stable HEK
[37] = target: Adenosine receptor A2a (Homo sapiens) (UniProt P29274); assay: A2A (h CEREP ligand profiling; conditions: filed as agonist, Compound concentration 10.0 uM
[38] = target: 5-hydroxytryptamine receptor 1E (Homo sapiens) (UniProt P28566); conditions: Compound concentration 10.0 uM
5-hydroxytryptamine receptor 1E (Homo sapiens), sequence (P28566 whole entry): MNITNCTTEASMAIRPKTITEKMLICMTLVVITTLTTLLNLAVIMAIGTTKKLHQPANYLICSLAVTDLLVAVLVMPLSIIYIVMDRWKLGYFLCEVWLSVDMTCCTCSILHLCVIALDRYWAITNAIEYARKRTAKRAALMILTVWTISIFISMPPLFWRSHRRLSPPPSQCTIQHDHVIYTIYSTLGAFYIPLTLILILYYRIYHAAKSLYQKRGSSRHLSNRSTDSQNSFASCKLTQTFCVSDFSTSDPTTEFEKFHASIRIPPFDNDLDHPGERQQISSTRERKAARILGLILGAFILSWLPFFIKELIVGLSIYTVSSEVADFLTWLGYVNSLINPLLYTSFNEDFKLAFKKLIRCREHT

[39] = target: T7, Muscarinic acetylcholine receptor M4 (Homo sapiens) (UniProt P08173); conditions: Compound concentration 10.0 uM
T7 sequence (whole entry): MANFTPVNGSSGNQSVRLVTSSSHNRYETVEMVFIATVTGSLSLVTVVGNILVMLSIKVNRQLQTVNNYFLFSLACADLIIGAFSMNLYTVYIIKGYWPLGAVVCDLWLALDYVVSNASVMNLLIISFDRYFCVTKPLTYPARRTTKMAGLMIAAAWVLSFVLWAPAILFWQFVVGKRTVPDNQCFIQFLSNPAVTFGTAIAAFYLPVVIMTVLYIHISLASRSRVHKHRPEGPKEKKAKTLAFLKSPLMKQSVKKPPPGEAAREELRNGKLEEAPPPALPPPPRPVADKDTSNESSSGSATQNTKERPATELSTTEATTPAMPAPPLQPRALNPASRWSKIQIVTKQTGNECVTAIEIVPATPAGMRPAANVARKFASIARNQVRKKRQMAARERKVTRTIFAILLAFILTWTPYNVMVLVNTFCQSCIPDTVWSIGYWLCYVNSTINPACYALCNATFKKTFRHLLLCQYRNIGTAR

[40] = target: Alpha-2B adrenergic receptor (Homo sapiens, UniProt P18089); assay: GPCRScan assay: inhibition of Alpha2B; set-up: radioligand conc. used [nm] 1.5 – 2.0, parental cells HEKT
Rattus norvegicus = organism: Rattus norvegicus; conditions: Compound concentration 10.0 uM
[41] = target: T6, 5-hydroxytryptamine receptor 2B; assay: GPCRScan assay: inhibition of 5-HT2B; set-up: radioligand conc. used [nm] 1.0 – 2.0, parental cells stable HEK
[42] = target: Histamine H3 receptor (Homo sapiens) (UniProt Q9Y5N1); conditions: Compound concentration 10.0 uM
Histamine H3 receptor (Homo sapiens), sequence (Q9Y5N1 whole entry): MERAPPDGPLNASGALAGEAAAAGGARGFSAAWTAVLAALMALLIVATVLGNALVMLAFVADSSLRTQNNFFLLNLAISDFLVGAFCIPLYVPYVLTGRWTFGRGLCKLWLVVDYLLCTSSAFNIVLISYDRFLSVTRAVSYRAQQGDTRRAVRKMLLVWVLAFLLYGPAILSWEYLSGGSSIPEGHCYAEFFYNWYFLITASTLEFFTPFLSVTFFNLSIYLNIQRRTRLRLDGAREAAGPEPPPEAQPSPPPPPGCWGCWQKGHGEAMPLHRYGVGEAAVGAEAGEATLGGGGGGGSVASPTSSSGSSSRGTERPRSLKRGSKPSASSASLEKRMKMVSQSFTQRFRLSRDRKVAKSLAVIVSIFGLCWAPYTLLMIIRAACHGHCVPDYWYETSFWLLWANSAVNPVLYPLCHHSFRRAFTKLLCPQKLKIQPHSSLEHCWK

[43] = target: D(1A) dopamine receptor (Homo sapiens) (UniProt P21728); conditions: Compound concentration 10.0 uM
D(1A) dopamine receptor (Homo sapiens), sequence (P21728 whole entry): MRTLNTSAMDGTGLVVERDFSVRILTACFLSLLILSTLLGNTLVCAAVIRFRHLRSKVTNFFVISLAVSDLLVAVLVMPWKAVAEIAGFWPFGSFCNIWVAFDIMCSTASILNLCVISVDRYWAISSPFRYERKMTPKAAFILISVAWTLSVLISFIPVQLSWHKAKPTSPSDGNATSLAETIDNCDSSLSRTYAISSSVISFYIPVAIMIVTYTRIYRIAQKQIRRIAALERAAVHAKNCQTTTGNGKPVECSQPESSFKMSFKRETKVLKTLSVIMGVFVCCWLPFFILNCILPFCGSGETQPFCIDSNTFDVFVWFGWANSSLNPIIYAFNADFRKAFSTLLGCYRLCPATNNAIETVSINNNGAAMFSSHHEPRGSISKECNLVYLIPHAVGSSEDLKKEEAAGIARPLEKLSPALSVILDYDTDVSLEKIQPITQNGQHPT

[44] = target: Alpha-2A adrenergic receptor (Homo sapiens) (UniProt P08913); conditions: Compound concentration 10.0 uM
[45] = target: Histamine H1 receptor (Homo sapiens) (UniProt P35367); conditions: Compound concentration 10.0 uM
[46] = target: Lysine-specific histone demethylase 1A (Homo sapiens, UniProt O60341); assay: HyPerBlu KDM1A enzymatic assay
[47] = target: 3',5'-cyclic-AMP phosphodiesterase 4D (Homo sapiens) (UniProt Q08499); assay: PDE4D2 (h) CEREP ligand profiling; conditions: Compound concentration 10.0 uM
[48] = target: Alpha-2A adrenergic receptor (Homo sapiens, UniProt P08913); assay: GPCRScan assay: inhibition of Alpha2A; set-up: radioligand conc. used [nm] 1.0 – 3.0, parental cells stable MDCK
[49] = target: T7, Muscarinic acetylcholine receptor M4 (Homo sapiens); assay: M4 (h) CEREP ligand profiling; conditions: filed as antagonist, Compound concentration 10.0 uM
[50] = target: Muscarinic acetylcholine receptor M3 (Homo sapiens) (UniProt P20309); conditions: Compound concentration 10.0 uM
[51] = target: Alpha-1A adrenergic receptor (Homo sapiens) (UniProt P35348); conditions: Compound concentration 10.0 uM
[52] = target: Muscarinic acetylcholine receptor M5 (Homo sapiens) (UniProt P08912); conditions: Compound concentration 10.0 uM
[53] = target: Muscarinic acetylcholine receptor M2 (Homo sapiens) (UniProt P08172); conditions: Compound concentration 10.0 uM
[54] = target: Sodium-dependent serotonin transporter (Homo sapiens) (UniProt P31645); conditions: Compound concentration 10.0 uM
[55] = target: Melatonin receptor type 1A (Homo sapiens) (UniProt P48039); assay: MT1 (ML1A) (h) CEREP ligand profiling; conditions: filed as agonist, Compound concentration 10.0 uM
[56] = target: Sodium-dependent noradrenaline transporter (Homo sapiens) (UniProt P23975); conditions: Compound concentration 10.0 uM
[57] = target: 5-hydroxytryptamine receptor 5A (Homo sapiens) (UniProt P47898); conditions: Compound concentration 10.0 uM
[58] = target: Alpha-1B adrenergic receptor (Homo sapiens) (UniProt P35368); conditions: Compound concentration 10.0 uM
[59] = target: Sigma non-opioid intracellular receptor 1 (Homo sapiens) (UniProt Q99720); conditions: Compound concentration 10.0 uM
[60] = target: Adenosine receptor A1 (Homo sapiens) (UniProt P30542); assay: A1 (h) CEREP ligand profiling; conditions: filed as antagonist, Compound concentration 10.0 uM
[61] = target: Muscarinic acetylcholine receptor M1 (Homo sapiens) (UniProt P11229); conditions: Compound concentration 10.0 uM
[62] = target: T5, Kappa-type opioid receptor; assay: kappa (h) (KOP) CEREP ligand profiling; conditions: filed as agonist, Compound concentration 10.0 uM
[63] = target: Substance-K receptor (Homo sapiens) (UniProt P21452); assay: NK2 (h) CEREP ligand profiling; conditions: filed as agonist, Compound concentration 10.0 uM
Substance-K receptor (Homo sapiens), sequence (P21452 whole entry): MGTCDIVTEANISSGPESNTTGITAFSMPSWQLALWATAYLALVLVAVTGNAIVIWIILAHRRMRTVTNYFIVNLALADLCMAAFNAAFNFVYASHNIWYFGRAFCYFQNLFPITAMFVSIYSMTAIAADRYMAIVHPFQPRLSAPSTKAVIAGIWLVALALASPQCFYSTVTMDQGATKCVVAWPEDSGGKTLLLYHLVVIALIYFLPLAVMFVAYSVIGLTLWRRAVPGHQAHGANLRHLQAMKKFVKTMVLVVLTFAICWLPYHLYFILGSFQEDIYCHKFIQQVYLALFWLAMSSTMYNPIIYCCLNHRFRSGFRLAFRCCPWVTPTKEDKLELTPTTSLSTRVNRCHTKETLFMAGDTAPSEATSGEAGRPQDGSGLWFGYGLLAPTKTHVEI

Spermine oxidase [64] = target: T3, Spermine oxidase; assay: Horseradish Peroxidase (HRP) Fluorescence Assay

- inhibition [1]: 13.1%
- IC50 [2]: 790 nM (not active)
- inhibition [3]: 76.7%
- inhibition [4]: 2.96%
- inhibition [5]: 70.3%
- inhibition [6]: 20.1%
- inhibition [7]: 75.1%
- inhibition [8]: -4.5%
- inhibition [9]: 24.8%
- inhibition [10]: 28.1%
- Ki [11]: 1920 nM
- inhibition [12]: 25.3%
- inhibition [13]: 69.9%
- inhibition [14]: 101%
- inhibition [15]: 26.9%
- inhibition [16]: 32.6%
- Ki ([17]; read-out: Ki): 318 nM and 219 nM
- Ki ([17]; read-out: pKi (converted)): 195 nM
- inhibition [18]: 42.2%
- IC50 (Spermine oxidase [19]): 1200 nM (active)
- inhibition [20]: 47.7%
- inhibition [21]: 28.4%
- inhibition [22]: 17.1%
- inhibition [23]: 62.1%
- inhibition [24]: 25.6%
- inhibition [25]: 27.4%
- inhibition [26]: 8.26%
- inhibition [27]: 73.3%
- inhibition [28]: 68.5%
- Ki [29]: 1170 nM
- inhibition [30]: -7.92%
- inhibition (D(3) dopamine receptor): 40.5%
- inhibition [31]: 57.9%
- inhibition (Homo sapiens): 62.8%
- inhibition [32]: 20.4%
- inhibition [33]: 104%
- inhibition [34]: 20.9%
- Ki [35]: 498 nM
- pKi [35]: 6.3
- Ki ([36]; read-out: Ki): 478 nM
- Ki ([36]; read-out: pKi (converted)): 407 nM
- inhibition [37]: 75%
- inhibition [38]: 0.95%
- inhibition [39]: 36.6%
- Ki [40]: 3580 nM
- inhibition (Rattus norvegicus): 114%
- Ki [41]: 897 nM
- inhibition [42]: -7.55%
- inhibition [43]: 28.9%
- inhibition [44]: 64%
- inhibition [45]: 4.87%
- IC50 [46]: > 60000 nM (not active)
- inhibition [47]: 63%
- Ki [48]: 3830 nM
- inhibition [49]: 59.8%
- inhibition [50]: 32%
- inhibition [51]: 3.52%
- inhibition [52]: 37.9%
- inhibition [53]: 24.3%
- inhibition [54]: 16.6%
- inhibition [55]: 58.8%
- inhibition [56]: 46%
- inhibition [57]: 17.5%
- inhibition [58]: 10.2%
- inhibition [59]: 30.5%
- inhibition [60]: 98.9%
- inhibition [61]: 24.8%
- inhibition [62]: 74.1%
- inhibition [63]: 56.8%
- Ki (Spermine oxidase [64]): 9.9 nM (active)
SMILES: O=C(NCCCn1ccnc1)c1cc2nc(-c3ccccc3)cc(-c3ccccc3)n2n1
